Results on 60 compounds are retold here after the METLIN SMRT retention time set (Domingo-Almenara et al. 2019).

Each structure is given as a SMILES string.

The data set is described as follows: gradient 5% acetonitrile 3 min, to 50% in 2 min, to 85% in 15 min, held 3 min, 100 µL/min. The settings on record: column: Zorbax Extend-C18 2.1 x 50 mm; eluents: water / acetonitrile, 0.1% formic acid. The method, boiled down: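 Mixtures of ~100 pure standards were chromatographed on a Zorbax Extend-C18 column (2.1 × 50 mm, 1.8 μm) at 100 μL/min using water and acetonitrile, each with 0.1% formic acid. Detection used a quadrupole time-of-flight mass spectrometer in positive and negative ionization mode, and data collection spanned 3 months. Retention time was obtained from adduct peaks picked computationally and each checked manually.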
Compound `COc1ccc(C2(c3nc(-c4ccc5oc(C)nc5c4)no3)CC2)cc1` yielded an RP-LC retention time of 651 s.
As for `O=C(Cn1cnc(-c2ccc(F)cc2)cc1=O)NCc1ccco1`, the figure is 684 s.
As for `COc1ccc(-c2noc(Cn3ccn(-c4c(C)cccc4C)c(=O)c3=O)n2)cc1`, the figure is 870 s.
The result for `O=C(NCc1ccc(F)cc1)N1CCN(c2cc(-c3ccncc3)[nH]n2)CC1` reads 611 s.
Turning to `CCNC(=O)C1CCCN(C(=O)Nc2ccc(NC(=O)Nc3ccccc3F)cc2)C1` (stereo not given), the RP-LC retention time is 689 s.
Turning to `CCCNC(=O)CC1CCN(C(=O)c2[nH]c(C)c(C(=O)OC(C)C)c2C)CC1`, the RP-LC retention time was 724 s.
The result for `Nc1ccc(-c2nc3ccc(-c4nc5ccc(N)cc5[nH]4)cc3[nH]2)cc1` reads 568 s; that for `COc1ccc(CN2CCNCC2)c(OC)c1OC`, 578 s; that for `COc1ccc2c(=O)cc(-c3cccnc3)oc2c1OC`, 763 s.
The result for `O=c1cc(-c2ccccc2)oc2cc(O)c(O)cc12` reads 750 s; that for `CNC(=O)[C@H]1C[C@H](Oc2ccccc2)CN1C(=O)CCc1nc2ccccc2s1`, 759 s.
As for `CC(=O)N(C1CC1)C1CCOC2(CCN(C(=O)c3sc(C)nc3C)CC2)C1` (stereo not given), the figure is 643 s; as for `CSc1ccccc1C(=O)NCc1cc(-c2cccs2)on1`, 796 s; as for `CC(C)CC(=O)Nc1ccc(-n2cnc(C(=O)N3CCN(C4CCCCC4)CC3)c2)nc1`, 620 s.
In turn, `c1cc(N2CCCCCC2)ncc1-c1noc(CN2CCCC2)n1` displayed an RP-LC retention time of 586 s.
As for `CCCn1c(=O)c(C)nc2cc(-c3noc(Cc4ccc(F)cc4)n3)ccc21`, the figure is 1060 s.
The result for `CC(C(=O)NCc1nn(C)c2ccccc12)c1ccccc1` (stereo not given) reads 792 s.
Compound `Cc1nc(CC(=O)NCc2ccc(F)c(Cl)c2)sc1C(=O)NC1CC1` registered an RP-LC retention time of 708 s.
As for `COc1cccc(C2CC(c3ccc(C)c(C)c3)=NC3(CCN(C(C)=O)CC3)N2)c1O` (stereo not given), the figure is 694 s.
As for `O=C(c1ccc2ccnc(N3CCN(c4ccc(Cl)cc4)CC3)c2c1)N1CCCCC1`, the figure is 894 s.
On to `CCCOc1ccc2nc(NC(=O)OC)[nH]c2c1`, for which the RP-LC retention time stood at 652 s.
On to `COC(=O)c1cc(S(=O)(=O)N2CCCC2C(=O)Nc2nc(C)cs2)cn1C` (stereo not given), for which the RP-LC retention time came out at 791 s.
As for `CN(C)CCNC(=O)c1ccc(-c2ccc(N3CCCCCC3)nc2)cc1`, the figure is 560 s; as for `CCN1C(=O)c2ccccc2Oc2ccc(C(=O)N3CCCCCC3)cc21`, 900 s.
As for `Cc1ccccc1CC(=O)NCC(=O)Nc1nc2ccccc2[nH]1`, the figure is 639 s; as for `Cc1ncc2c(n1)CCN(C(=O)c1cccc(Cl)c1)C2`, 653 s.
The result for `Cc1cccn2c(Nc3ccc4c(c3)OCCO4)c(-c3ccc(O)cc3)nc12` reads 642 s.
`O=C(NCCCN1CCCC1=O)C1=C2CCCN2c2ccc(F)cc2S1(=O)=O` displayed an RP-LC retention time of 650 s.
In turn, `CCOc1ccc(NS(=O)(=O)c2cc(C(=O)Nc3cccc(Cl)c3)n[nH]2)cc1` registered an RP-LC retention time of 916 s.
As for `COc1cccc2cc(C(=O)NCCC(O)C(C)(C)C)oc12` (stereo not given), the figure is 770 s.
The result for `CC1(C)CC(=O)c2cn(-c3ccc(Cl)cc3)c(=O)c(C(=O)Nc3cccnc3)c2C1` reads 763 s.
The result for `O=C(NC1CCN(Cc2ccccc2)CC1)C1CCCN(c2nccnc2Oc2ccccc2)C1` (stereo not given) reads 680 s; that for `Cc1cc(C)cc(NC(=O)C2CC(=O)N(c3n[nH]c4cccc(F)c34)C2)c1` (stereo not given), 770 s.
Compound `COc1ccc(CNC(=O)c2c(C)sc3ccn(CC(C)C)c(=O)c23)cc1OC` came in with an RP-LC retention time of 865 s.
As for `CN(C)C(CNC(=O)C1(c2cccs2)CCCC1)c1ccsc1` (stereo not given), the figure is 596 s; as for `O=C(NC(c1ccccc1)c1nnc(N2CCOCC2)o1)c1ccc2c(c1)OCO2` (stereo not given), 726 s; as for `COc1ccc(NC(=O)Cn2nc3n(c2=O)CCCC3)c(OC)c1`, 642 s.
The result for `CCOc1ccc(CCNC(=O)c2cc3sc(Cl)cc3n2CC)cc1OCC` reads 1200 s; that for `Cc1cn2c3c(=O)n(Cc4c(F)cccc4Cl)c(=O)n(C)c3nc2n1C(C)C`, 886 s.
Consider `Cn1nc(-c2ccncc2)nc1C1CN(S(=O)(=O)c2cccc(C(F)(F)F)c2)C1`, for which the RP-LC retention time was determined as 715 s.
The result for `Cc1c(C(=O)NCc2ccc(OC(C)C)cc2)cc(-c2ccccc2)n1C` reads 1080 s.
As for `COc1ccc(-c2csc(NC(=O)CCn3c(=O)sc4ccccc43)n2)cc1OC`, the figure is 917 s.
Compound `Cn1cc(S(=O)(=O)N2CCC(C(=O)N3CCOCC3)CC2)cc1C(=O)N1CCCC1` returned an RP-LC retention time of 626 s.
As for `Cc1cccc(CN2CC(=O)N(c3ccccc3)[C@@H]3CS(=O)(=O)C[C@@H]32)c1`, the figure is 800 s; as for `CCOC(=O)c1[nH]c(C)c(CCC(=O)N2CCC(C(=O)NC(C)CC)CC2)c1C` (stereo not given), 723 s; as for `COc1ccc(Cl)cc1NC(=O)Nc1c(-c2ccncc2)nc2ccccn12`, 642 s.
The result for `CC1CCN(c2nn(CC(=O)NC3CCc4ccccc43)c(=O)c3ccccc23)CC1` (stereo not given) reads 1140 s; that for `Cc1cccc2nnc(N3CCN(C(=O)c4cccc(Cl)c4)CC3)n12`, 584 s.
As for `CCCc1c(C(=O)O)nnn1Cc1ccccc1`, the figure is 746 s.
Compound `Cc1c(-c2noc(-c3ccc(F)c(F)c3)n2)nnn1Cc1ccccc1` came in with an RP-LC retention time of 1090 s.
As for `Cc1ccccc1C(=O)Nc1nc(-c2ccc3c(c2)N(C)C(=O)CO3)c(C)s1`, the figure is 1050 s; as for `Cc1ccc(C2=NC3(CCN(C(=O)c4ccc[nH]4)CC3)ON2)cc1`, 747 s.
The result for `O=C(NCc1cccs1)c1ccc2ncnc(N3CCCC3)c2c1` reads 617 s.
Turning to `CCOC(=O)c1c(NC(=O)CSc2nnc(-c3cccnc3)o2)sc2c1CCC2`, the RP-LC retention time is 932 s.
The result for `Cc1nc(CCNC(=O)C2CCN(S(=O)(=O)c3ccc(Br)s3)CC2)cs1` reads 759 s; that for `Cc1nc(C)c(C(=O)Nc2nc(-c3ccccc3)c(C)s2)s1`, 930 s; that for `COc1ccc(-c2noc(C3CC(=O)N(c4cc(Cl)ccc4OC)C3)n2)cc1` (stereo not given), 950 s.
The result for `O=C(NCc1ccc(F)c(Cl)c1)c1cn2c(n1)COCC2` reads 690 s; that for `Cc1cc(-n2c(C)nc3ccccc3c2=O)ccc1NC(=O)Cc1ccccc1F`, 798 s; that for `COc1cccc(OC)c1C(=O)Nc1nc2c(s1)CCc1ccccc1-2`, 1000 s.
